“And” between values parts separate entries of the source, which are not always exact repeats. Identical values can stand only once.
How the values were obtained:
Conditions in all cases: compound 10.0 µM
ACVRL1 (human) = ACVRL1 (human) (UniProt P37023)
ADRBK2 (human) = ADRBK2 (human) (UniProt P35626)
AURKC (human) = AURKC (human) (UniProt Q9UQB9)
CHUK (human) = CHUK (human) (UniProt O15111)
CLK1 (human) = CLK1 (human) (UniProt P49759)
CSNK1D (human) = CSNK1D (human) (UniProt P48730)
CSNK1G2 (human) = CSNK1G2 (human) (UniProt P78368)
DAPK1 (human) = DAPK1 (human) (UniProt P53355)
DAPK3 (human) = DAPK3 (human) (UniProt O43293)
DMPK (human) = DMPK (human) (UniProt Q09013)
Sequence of DMPK (human) (Q09013 whole entry, looked up): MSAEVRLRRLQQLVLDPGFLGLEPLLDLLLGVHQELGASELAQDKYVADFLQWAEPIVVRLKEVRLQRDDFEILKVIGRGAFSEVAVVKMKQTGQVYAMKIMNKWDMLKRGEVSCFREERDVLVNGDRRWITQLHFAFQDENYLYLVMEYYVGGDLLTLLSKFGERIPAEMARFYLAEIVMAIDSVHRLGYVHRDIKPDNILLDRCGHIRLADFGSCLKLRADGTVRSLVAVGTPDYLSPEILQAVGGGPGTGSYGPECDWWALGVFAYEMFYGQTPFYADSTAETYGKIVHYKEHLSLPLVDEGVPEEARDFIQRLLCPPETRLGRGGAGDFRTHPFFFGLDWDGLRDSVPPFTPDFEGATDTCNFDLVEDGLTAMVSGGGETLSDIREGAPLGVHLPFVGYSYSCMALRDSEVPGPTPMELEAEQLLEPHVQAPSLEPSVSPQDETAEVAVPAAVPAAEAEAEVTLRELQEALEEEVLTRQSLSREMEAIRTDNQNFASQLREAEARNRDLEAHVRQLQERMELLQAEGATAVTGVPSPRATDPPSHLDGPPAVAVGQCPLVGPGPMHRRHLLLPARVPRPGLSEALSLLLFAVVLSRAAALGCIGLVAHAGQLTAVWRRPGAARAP

DYRK4 (human) = DYRK4 (human) (UniProt Q9NR20)
Sequence of DYRK4 (human) (Q9NR20 whole entry, looked up): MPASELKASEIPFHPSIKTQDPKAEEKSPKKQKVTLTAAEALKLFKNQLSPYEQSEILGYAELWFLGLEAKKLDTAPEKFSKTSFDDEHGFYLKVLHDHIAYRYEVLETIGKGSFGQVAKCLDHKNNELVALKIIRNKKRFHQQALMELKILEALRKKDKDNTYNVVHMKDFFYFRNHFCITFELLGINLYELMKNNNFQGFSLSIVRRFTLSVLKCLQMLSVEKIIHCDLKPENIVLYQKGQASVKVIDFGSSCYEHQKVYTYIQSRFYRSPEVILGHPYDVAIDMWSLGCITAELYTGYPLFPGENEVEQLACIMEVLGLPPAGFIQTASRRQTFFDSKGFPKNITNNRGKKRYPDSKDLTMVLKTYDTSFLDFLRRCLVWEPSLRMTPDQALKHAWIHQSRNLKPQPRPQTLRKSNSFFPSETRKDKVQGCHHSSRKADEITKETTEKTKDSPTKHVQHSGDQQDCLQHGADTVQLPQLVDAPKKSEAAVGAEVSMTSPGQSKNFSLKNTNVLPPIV

FGFR1 (human) = FGFR1 (human) (UniProt P11362)
FGFR2 (human) = FGFR2 (human) (UniProt P21802)
FYN (human) = FYN (human) (UniProt P06241)
GRK4 (human) = GRK4 (human) (UniProt P32298)
Sequence of GRK4 (human) (P32298 whole entry, looked up): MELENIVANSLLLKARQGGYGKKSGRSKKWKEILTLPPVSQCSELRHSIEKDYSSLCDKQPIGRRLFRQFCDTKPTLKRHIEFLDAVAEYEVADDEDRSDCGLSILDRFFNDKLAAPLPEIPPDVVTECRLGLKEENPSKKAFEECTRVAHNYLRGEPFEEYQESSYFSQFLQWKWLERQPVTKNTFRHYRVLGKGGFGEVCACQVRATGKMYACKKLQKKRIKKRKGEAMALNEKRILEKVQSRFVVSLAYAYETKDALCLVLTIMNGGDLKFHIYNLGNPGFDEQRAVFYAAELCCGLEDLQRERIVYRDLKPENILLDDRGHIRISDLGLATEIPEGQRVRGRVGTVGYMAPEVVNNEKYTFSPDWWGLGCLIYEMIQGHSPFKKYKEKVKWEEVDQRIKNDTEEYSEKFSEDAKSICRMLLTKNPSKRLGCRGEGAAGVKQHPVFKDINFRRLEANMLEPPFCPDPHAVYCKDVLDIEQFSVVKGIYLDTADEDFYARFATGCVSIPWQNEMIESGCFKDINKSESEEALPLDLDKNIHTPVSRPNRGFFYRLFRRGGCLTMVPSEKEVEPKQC

GRK7 (human) = GRK7 (human) (UniProt Q8WTQ7)
HIPK3 (human) = HIPK3 (human) (UniProt Q9H422)
IRAK1 (human) = IRAK1 (human) (UniProt P51617)
MAP3K7 (human) = MAP3K7 (human) (UniProt O43318)
Sequence of MAP3K7 (human) (O43318 whole entry, looked up): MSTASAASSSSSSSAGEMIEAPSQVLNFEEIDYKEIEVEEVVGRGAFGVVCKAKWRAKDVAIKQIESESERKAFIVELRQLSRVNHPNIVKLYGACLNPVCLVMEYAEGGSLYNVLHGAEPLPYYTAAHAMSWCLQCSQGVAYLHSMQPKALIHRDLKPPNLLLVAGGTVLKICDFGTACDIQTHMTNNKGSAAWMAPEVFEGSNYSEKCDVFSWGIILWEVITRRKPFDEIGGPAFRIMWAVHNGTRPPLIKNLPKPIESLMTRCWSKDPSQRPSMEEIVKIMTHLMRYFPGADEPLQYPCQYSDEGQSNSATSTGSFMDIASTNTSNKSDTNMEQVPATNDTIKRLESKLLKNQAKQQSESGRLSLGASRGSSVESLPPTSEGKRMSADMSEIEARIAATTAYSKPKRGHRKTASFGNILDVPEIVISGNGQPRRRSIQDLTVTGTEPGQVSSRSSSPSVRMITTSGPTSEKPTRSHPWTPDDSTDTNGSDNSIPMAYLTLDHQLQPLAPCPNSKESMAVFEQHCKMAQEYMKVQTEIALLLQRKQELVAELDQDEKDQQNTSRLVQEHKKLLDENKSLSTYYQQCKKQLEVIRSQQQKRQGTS

MAP4K4 (human) = MAP4K4 (human) (UniProt O95819)
MAPK1 (human) = MAPK1 (human) (UniProt P28482)
Sequence of MAPK1 (human) (P28482 whole entry, looked up): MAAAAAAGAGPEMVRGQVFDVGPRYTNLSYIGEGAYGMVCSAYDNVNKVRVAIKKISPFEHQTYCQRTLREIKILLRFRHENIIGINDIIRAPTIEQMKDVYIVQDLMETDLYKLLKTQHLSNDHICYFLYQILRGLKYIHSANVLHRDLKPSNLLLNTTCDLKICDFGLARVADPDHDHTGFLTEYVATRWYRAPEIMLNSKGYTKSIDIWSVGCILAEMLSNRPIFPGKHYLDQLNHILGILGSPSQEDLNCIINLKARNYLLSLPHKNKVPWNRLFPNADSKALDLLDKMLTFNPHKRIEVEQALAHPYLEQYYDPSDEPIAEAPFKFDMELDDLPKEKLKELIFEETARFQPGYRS

MAPK9 (human) = MAPK9 (human) (UniProt P45984)
MELK (human) = MELK (human) (UniProt Q14680)
NEK1 (human) = NEK1 (human) (UniProt Q96PY6)
NEK7 (human) = NEK7 (human) (UniProt Q8TDX7)
NLK (human) = NLK (human) (UniProt Q9UBE8)
Sequence of NLK (human) (Q9UBE8 whole entry, looked up): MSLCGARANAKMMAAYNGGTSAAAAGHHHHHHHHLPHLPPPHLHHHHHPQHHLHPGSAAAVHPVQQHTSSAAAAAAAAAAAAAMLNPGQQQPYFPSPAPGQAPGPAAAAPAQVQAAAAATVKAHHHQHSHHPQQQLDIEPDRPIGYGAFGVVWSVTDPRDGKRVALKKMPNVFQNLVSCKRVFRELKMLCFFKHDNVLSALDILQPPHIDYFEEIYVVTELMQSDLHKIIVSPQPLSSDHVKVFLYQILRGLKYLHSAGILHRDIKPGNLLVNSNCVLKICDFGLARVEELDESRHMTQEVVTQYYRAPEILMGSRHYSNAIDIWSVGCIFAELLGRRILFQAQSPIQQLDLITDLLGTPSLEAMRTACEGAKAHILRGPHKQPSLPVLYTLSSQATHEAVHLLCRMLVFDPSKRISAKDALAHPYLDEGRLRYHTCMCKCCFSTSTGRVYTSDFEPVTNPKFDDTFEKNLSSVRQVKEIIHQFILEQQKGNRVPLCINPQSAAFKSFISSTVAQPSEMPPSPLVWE

NTRK3 (human) = NTRK3 (human) (UniProt Q16288)
NUAK2 (human) = NUAK2 (human) (UniProt Q9H093)
Sequence of NUAK2 (human) (Q9H093 whole entry, looked up): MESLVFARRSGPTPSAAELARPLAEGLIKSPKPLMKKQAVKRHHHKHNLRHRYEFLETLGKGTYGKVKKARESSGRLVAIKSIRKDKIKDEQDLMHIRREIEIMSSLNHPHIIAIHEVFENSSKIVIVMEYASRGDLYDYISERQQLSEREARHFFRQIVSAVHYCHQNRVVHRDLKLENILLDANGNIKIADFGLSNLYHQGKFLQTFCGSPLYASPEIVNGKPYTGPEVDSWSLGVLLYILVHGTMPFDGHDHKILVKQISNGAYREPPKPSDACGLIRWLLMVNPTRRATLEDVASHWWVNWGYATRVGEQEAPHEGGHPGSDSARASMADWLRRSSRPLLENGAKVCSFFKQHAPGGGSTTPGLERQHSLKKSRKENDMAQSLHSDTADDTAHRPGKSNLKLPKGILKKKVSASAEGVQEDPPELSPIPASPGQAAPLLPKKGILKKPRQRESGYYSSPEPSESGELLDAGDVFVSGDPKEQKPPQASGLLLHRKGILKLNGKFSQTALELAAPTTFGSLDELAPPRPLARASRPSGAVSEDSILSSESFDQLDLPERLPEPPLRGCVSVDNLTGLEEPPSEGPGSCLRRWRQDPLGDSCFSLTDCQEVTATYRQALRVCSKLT

PIM1 (human) = PIM1 (human) (UniProt P11309)
PKN2 (human) = PKN2 (human) (UniProt Q16513)
PRKCA (human) = PRKCA (human) (UniProt P17252)
PRKCH (human) = PRKCH (human) (UniProt P24723)
PRKCQ (human) = PRKCQ (human) (UniProt Q04759)
PRKG1 (human) = PRKG1 (human) (UniProt Q13976)
Sequence of PRKG1 (human) (Q13976 whole entry, looked up): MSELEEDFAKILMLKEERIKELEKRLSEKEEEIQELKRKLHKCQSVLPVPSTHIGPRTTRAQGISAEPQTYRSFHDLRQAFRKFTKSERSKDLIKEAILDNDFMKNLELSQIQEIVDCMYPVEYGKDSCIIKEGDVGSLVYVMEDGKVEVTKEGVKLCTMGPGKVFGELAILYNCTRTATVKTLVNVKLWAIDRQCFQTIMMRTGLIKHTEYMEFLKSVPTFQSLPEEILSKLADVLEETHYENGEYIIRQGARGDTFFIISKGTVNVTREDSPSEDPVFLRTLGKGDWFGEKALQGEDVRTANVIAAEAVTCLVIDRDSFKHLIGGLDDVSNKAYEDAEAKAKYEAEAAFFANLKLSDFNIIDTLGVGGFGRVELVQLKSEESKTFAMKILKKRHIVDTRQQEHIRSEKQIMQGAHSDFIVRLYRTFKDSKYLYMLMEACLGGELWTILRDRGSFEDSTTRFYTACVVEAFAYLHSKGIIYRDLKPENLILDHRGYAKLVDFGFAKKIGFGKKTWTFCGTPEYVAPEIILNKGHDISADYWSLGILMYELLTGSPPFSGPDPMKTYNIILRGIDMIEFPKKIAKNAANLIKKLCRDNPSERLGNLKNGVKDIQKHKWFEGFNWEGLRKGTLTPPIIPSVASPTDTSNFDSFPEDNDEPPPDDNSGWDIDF

RPS6KA1 KD1 KD2 (human) = RPS6KA1 KD1 KD2 (human) (UniProt Q15418)
RPS6KA5 KD1 KD2 (human) = RPS6KA5 KD1 KD2 (human) (UniProt O75582)
SRPK2 (human) = SRPK2 (human) (UniProt P78362)
STK10 (human) = STK10 (human) (UniProt O94804)
STK11 (human) = STK11 (human) (UniProt Q15831)
STK17A (human) = STK17A (human) (UniProt Q9UEE5)
TEC (human) = TEC (human) (UniProt P42680)
TEK (human) = TEK (human) (UniProt Q02763)
TSSK1B (human) = TSSK1B (human) (UniProt Q9BXA7)
ZAP70 (human) = ZAP70 (human) (UniProt P43403)

Sequence of CLK1 (human) (P49759 whole entry, looked up): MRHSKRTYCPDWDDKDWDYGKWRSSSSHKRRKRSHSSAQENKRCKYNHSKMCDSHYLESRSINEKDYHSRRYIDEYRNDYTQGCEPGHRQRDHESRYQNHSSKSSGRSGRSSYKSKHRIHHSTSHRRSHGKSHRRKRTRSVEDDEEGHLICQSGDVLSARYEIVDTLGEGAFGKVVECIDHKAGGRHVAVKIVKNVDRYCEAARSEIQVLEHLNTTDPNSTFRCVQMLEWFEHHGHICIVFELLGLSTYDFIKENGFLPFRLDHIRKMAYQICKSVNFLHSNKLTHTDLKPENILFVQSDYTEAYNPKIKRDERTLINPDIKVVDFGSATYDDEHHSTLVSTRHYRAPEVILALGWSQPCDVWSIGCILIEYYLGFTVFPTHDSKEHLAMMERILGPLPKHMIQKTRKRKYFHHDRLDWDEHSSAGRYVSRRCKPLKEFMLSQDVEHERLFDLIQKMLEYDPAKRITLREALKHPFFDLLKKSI

CC[C@H](C)n1cc(C)c2c(C(=O)NCc3c(C)cc(C)[nH]c3=O)cc(-c3ccc(N4CCNCC4)nc3)cc21
residual activity (ACVRL1 (human)): 98% | residual activity (ADRBK2 (human)): 105% | residual activity (AURKC (human)): 101% | residual activity (CHUK (human)): 93% | residual activity (CLK1 (human)): 99% | residual activity (CSNK1D (human)): 100% | residual activity (CSNK1G2 (human)): 90.5% | residual activity (DAPK1 (human)): 96.5% | residual activity (DAPK3 (human)): 106% | residual activity (DMPK (human)): 100% | residual activity (DYRK4 (human)): 98.5% | residual activity (FGFR1 (human)): 84.5% | residual activity (FGFR2 (human)): 98.5% | residual activity (FYN (human)): 100% | residual activity (GRK4 (human)): 98% | residual activity (GRK7 (human)): 97.5% | residual activity (HIPK3 (human)): 100% | residual activity (IRAK1 (human)): 97% | residual activity (MAP3K7 (human)): 106% | residual activity (MAP4K4 (human)): 102% | residual activity (MAPK1 (human)): 95% | residual activity (MAPK9 (human)): 80.5% | residual activity (MELK (human)): 79.5% | residual activity (NEK1 (human)): 96.5% | residual activity (NEK7 (human)): 99.5% | residual activity (NLK (human)): 95% | residual activity (NTRK3 (human)): 102% | residual activity (NUAK2 (human)): 103% | residual activity (PIM1 (human)): 102% | residual activity (PKN2 (human)): 89.5% | residual activity (PRKCA (human)): 106% | residual activity (PRKCH (human)): 103% | residual activity (PRKCQ (human)): 99.5% | residual activity (PRKG1 (human)): 95% and 90.5% | residual activity (RPS6KA1 KD1 KD2 (human)): 76% | residual activity (RPS6KA5 KD1 KD2 (human)): 108% | residual activity (SRPK2 (human)): 98.5% | residual activity (STK10 (human)): 90% | residual activity (STK11 (human)): 106% | residual activity (STK17A (human)): 96.5% | residual activity (TEC (human)): 81.5% | residual activity (TEK (human)): 95.5% | residual activity (TSSK1B (human)): 102% | residual activity (ZAP70 (human)): 97.5%
